Results taken from patent US4385055A, “2-Acetyl-and 2-propionylpyridine thiosemicarbazones as antimalarials” (The United States of America as represented by the …, priority 1981, dated 1983).
≈ marks a conversion by molar mass, not a printed value. Like-named read-outs stand apart in the source and are kept apart here.

Experiments:
Format in all cases: cell-based
[1] = tested on: Mycobacterium smegmatis; assay: MIC against Mycobacterium smegmatis strains (Test 4); settings: Mycolicibacterium smegmatis, read-out: Minimum Inhibitory Concentration
Method: Compounds were tested against four strains of Mycobacterium smegmatis. The test procedure used was as mentioned by N. E. Morrison [Int. J. of Leprosy 39:34-43 (1971)]. The strain numbers refer to Mycobacterium smegmatis ATCC 607, a DDS-resistant daughter strain, a Rifampin-resistant daughter strain, and a Clofazimine-resistant daughter strain, respectively.

[2] = tested on: Group D Enterococcus; assay: Macro broth dilution MIC, Group D Enterococcus isolates (Test 1); settings: 24 h, read after 24 hours, read-out: Minimum Inhibitory Concentration
Method: (§1) Compounds were tested against five isolates of Staphylococcus aureus and five isolates of Group D Enterococcus. The bacteria used were isolated from patients at the Walter Reed Army Medical Center, Washington, D.C. The test procedure used was the macro broth dilution method in duplicate as outlined by J. C. Sherris on pages 414-415 in "Manual of Clinical Microbiology," 2nd ed., E. Lennette, E. H. Spaulding, and J. P. Truant, Ed. (American Society for Microbiology, Washington, D.C., 1974). Each compound was dissolved in DMSO (12.8 mg/mL) and then diluted with Mueller-Hinton broth to obtain the desired dilutions. Tubes containing the highest quantities of DMSO with no compound present were run as controls.

[3] = tested on: Neisseria gonorrhoeae; assay: Agar dilution MIC, Neisseria gonorrhoeae isolates (Test 3); settings: 24 h
Method: Compounds were tested against six Neisseria gonorrhoeae isolates. The bacteria used were provided by the Department of Bacterial Diseases of the Walter Reed Army Institute of Research. The test procedure used was the agar dilution method in duplicate as outlined by J. C. Sherris on pages 411-412 (loc. cit.). GC Medium (Difco) with a 2% defined supplement added as described by D. S. Kellogg et al. [J. Bact. 85:1274-1279 (1963)] was used as the media. The compounds were dissolved in DMSO (1.0 mg/mL), diluted with GC broth (GC Medium without agar) to the appropriate concentration, and added to the GC Medium at 55°-56° C. The latter was then poured and allowed to solidify. A penicillin standard was also prepared with initial dilutions as described by J. C. Sherris followed by dilutions with GC broth and addition to the GC Medium at 55°-56° C. as above. The inoculum was 1:200 GC broth dilution of a suspension of colony isolates after the suspension was adjusted visually to the turbidity standard described by J. M. Matsen and A. L. Barr on page 422 in "Manual of Clinical Microbiology," 2nd ed., E. Lennette, E. H. Spaulding, and J. P. Truant, Ed. (American Society for Microbiology, Washington, D.C., 1974). The plates were inoculated with a replicator and incubated at 37° C. under 5-10% carbon dioxide.

[4] = tested on: Neisseria meningitidis; assay: Macro broth dilution MIC, Neisseria meningitidis isolates (Test 2); settings: for MIC: Neisseria meningitidis, 24 h, read-out: Minimum Inhibitory Concentration
Method: Compounds were tested against five isolates of Neisseria meningitidis. The bacterial isolates were provided by the Department of Bacterial Diseases of the Walter Reed Army Institute of Research. The test procedure used was the macro broth dilution method in duplicate outlined by J. C. Sherris on pages 414-415 (loc. cit.). The test compounds and controls were prepared as in Test 1 above. Ampicillin and penicillin standards were initially diluted as described by J. C. Sherris on pages 411-412 (loc. cit.) followed by dilution with Mueller-Hinton broth. The tubes were incubated at 37° C. under 5-10% carbon dioxide.

[5] = tested on: Staphylococcus aureus; assay: Macro broth dilution MIC, Staphylococcus aureus isolates (Test 1); settings: 24 h, read after 24 hours, read-out: Minimum Inhibitory Concentration
Method: as §1

[6] = tested on: Mycobacterium intracellulare; assay: Broth dilution MIC, Mycobacterium intracellulare strains (Test 6); settings: read-out: Minimum Inhibitory Concentration
[7] = ATCC607, Mycobacterium smegmatis strain I (ATCC 607)
[8] = Mycobacterium smegmatis strain II (DDS-resistant daughter strain)
[9] = Mycobacterium smegmatis strain III (Rifampin-resistant daughter strain)
[10] = Mycobacterium smegmatis strain IV (Clofazimine-resistant daughter strain)
[11] = Neisseria meningitidis isolate 7990, read after 24 hours
[12] = Neisseria meningitidis isolate 8006, read after 24 hours
[13] = Neisseria meningitidis isolate 8011, read after 24 hours
[14] = Neisseria gonorrhoeae isolate 135, read after 24 hours, read-out: Minimum Inhibitory Concentration
[15] = Neisseria gonorrhoeae isolate 161, read after 24 hours, read-out: Minimum Inhibitory Concentration
[16] = Neisseria gonorrhoeae isolate 278, read after 24 hours, read-out: Minimum Inhibitory Concentration
[17] = Neisseria gonorrhoeae isolate 455, read after 24 hours, read-out: Minimum Inhibitory Concentration
[18] = Neisseria gonorrhoeae isolate 456, read after 24 hours, read-out: Minimum Inhibitory Concentration
[19] = Neisseria gonorrhoeae isolate 602, read after 24 hours, read-out: Minimum Inhibitory Concentration

CC(=NNC(=S)N1CCC1)c1ccccn1 [FF, Azetidine-1-thiocarboxylic acid 2-[1-(2-pyridyl)ethylidene]hydrazide]
MIC [1, 7]: 2 µg/mL (≈ 8.54 µM) | MIC [1, 8]: 2 µg/mL (≈ 8.54 µM) | MIC [1, 9]: < 1 µg/mL | MIC [1, 10]: < 1 µg/mL

CC(C)/N=c1\cc2n(-c3ccc(Cl)cc3)c3ccccc3nc-2cc1Nc1ccc(Cl)cc1 [Clofazimine, reference compound]
MIC [1, 7]: 1.5 µg/mL (≈ 3.17 µM) | MIC [1, 10]: 20 µg/mL (≈ 42.2 µM)

CC(=NNC(=S)NC(C)(C)CC(C)(C)C)c1ccccn1 [G, 2-Acetylpyridine 4-(1,1,3,3-tetramethylbutyl)-3-thiosemicarbazone]
MIC ([2]; Group D Enterococcus isolate I): 8 µg/mL (≈ 26.1 µM) | MIC ([2]; Group D Enterococcus isolate II): 4 µg/mL (≈ 13.1 µM) | MIC ([2]; Group D Enterococcus isolate III): 4 µg/mL (≈ 13.1 µM) | MIC ([2]; Group D Enterococcus isolate IV): 4 µg/mL (≈ 13.1 µM) | MIC ([2]; Group D Enterococcus isolate V): 4 µg/mL (≈ 13.1 µM)

CC1(C)S[C@@H]2[C@H](NC(=O)Cc3ccccc3)C(=O)N2[C@H]1C(=O)O [Penicillin, reference compound]
MIC ([3]; read-out: Minimum Inhibitory Concentration, Neisseria gonorrhoeae isolate 135, read after 24 hours): 0.25 µg/mL (≈ 0.748 µM) | MIC ([3]; read-out: Minimum Inhibitory Concentration, Neisseria gonorrhoeae isolate 161, read after 24 hours): 0.125 µg/mL (≈ 0.374 µM) | MIC ([3]; read-out: Minimum Inhibitory Concentration, Neisseria gonorrhoeae isolate 278, read after 24 hours): < 0.062 µg/mL | MIC ([3]; read-out: Minimum Inhibitory Concentration, Neisseria gonorrhoeae isolate 455, read after 24 hours): 0.125 µg/mL (≈ 0.374 µM) | MIC ([3]; read-out: Minimum Inhibitory Concentration, Neisseria gonorrhoeae isolate 456, read after 24 hours): > 16 µg/mL | MIC ([3]; read-out: Minimum Inhibitory Concentration, Neisseria gonorrhoeae isolate 602, read after 24 hours): > 16 µg/mL | Minimum Inhibitory Concentration [4, 11]: 0.031 µg/mL | Minimum Inhibitory Concentration [4, 12]: 0.031 µg/mL | Minimum Inhibitory Concentration [4, 13]: 0.031 µg/mL | MIC [4]: 0.031 µg/mL (≈ 0.0927 µM)

C=CCNC(=S)NN=C(C)c1ccccn1 [A, 2-Acetylpyridine 4-allyl-3-thiosemicarbazone]
MIC [1, 7]: < 1 µg/mL | MIC [1, 8]: < 1 µg/mL | MIC [1, 9]: < 1 µg/mL | MIC [1, 10]: < 1 µg/mL

CC(=NNC(=S)N(C)C)c1ccccn1 [R, 2-Acetylpyridine 4,4-dimethyl-3-thiosemicarbazone]
MIC [3, 14]: 0.004 µg/mL (≈ 0.018 µM) | MIC [3, 15]: 0.004 µg/mL (≈ 0.018 µM) | MIC [3, 16]: 0.008 µg/mL (≈ 0.036 µM) | MIC [3, 17]: 0.008 µg/mL (≈ 0.036 µM) | MIC [3, 18]: 0.008 µg/mL (≈ 0.036 µM) | MIC [3, 19]: 0.008 µg/mL (≈ 0.036 µM) | MIC ([4]; Neisseria meningitidis isolate 7957, read after 24 hours): 0.062 µg/mL (≈ 0.279 µM) | MIC [4, 11]: 0.125 µg/mL (≈ 0.562 µM) | MIC ([4]; Neisseria meningitidis isolate 8005, read after 24 hours): 0.062 µg/mL (≈ 0.279 µM) | MIC [4, 12]: 0.062 µg/mL (≈ 0.279 µM) | MIC [4, 13]: 0.125 µg/mL (≈ 0.562 µM) | MIC [1, 7]: 2 µg/mL (≈ 9 µM) | MIC [1, 8]: 3 µg/mL (≈ 13.5 µM) | MIC [1, 9]: 2 µg/mL (≈ 9 µM) | MIC [1, 10]: 2 µg/mL (≈ 9 µM)

CC(=NNC(=S)N1CCCC1)c1ccccn1 [HH, 1-Azacyclopentane-1-thiocarboxylic acid 2-[1-(2-pyridyl)ethylidene]hydrazide]
MIC [3, 14]: 0.008 µg/mL (≈ 0.0322 µM) | MIC [3, 15]: 0.004 µg/mL (≈ 0.0161 µM) | MIC [3, 16]: 0.008 µg/mL (≈ 0.0322 µM) | MIC [3, 17]: 0.008 µg/mL (≈ 0.0322 µM) | MIC [3, 18]: 0.008 µg/mL (≈ 0.0322 µM) | MIC [3, 19]: 0.008 µg/mL (≈ 0.0322 µM) | MIC [1, 7]: 2 µg/mL (≈ 8.05 µM) | MIC [1, 8]: 3 µg/mL (≈ 12.1 µM) | MIC [1, 9]: 2 µg/mL (≈ 8.05 µM) | MIC [1, 10]: 4 µg/mL (≈ 16.1 µM)

CC(=NNC(=S)NCc1ccccc1C)c1ccccn1 [N, 2-Acetylpyridine 4-(2-methylbenzyl)-3-thiosemicarbazone]
MIC ([5]; Staphylococcus aureus isolate I): 2 µg/mL (≈ 6.7 µM) | MIC ([5]; Staphylococcus aureus isolate II): 2 µg/mL (≈ 6.7 µM) | MIC ([5]; Staphylococcus aureus isolate III): 2 µg/mL (≈ 6.7 µM) | MIC ([5]; Staphylococcus aureus isolate IV): 2 µg/mL (≈ 6.7 µM) | MIC ([5]; Staphylococcus aureus isolate V): 1 µg/mL (≈ 3.35 µM)

CC(=NNC(=S)N1CCCCCCCCCCCC1)c1ccccn1 [Z, 1-Azacyclotridecane-1-thiocarboxylic acid 2-[1-(2-pyridyl)ethylidene]hydrazide]
MIC ([6]; Mycobacterium intracellulare strain I): 10 µg/mL (≈ 27.7 µM) | MIC ([6]; Mycobacterium intracellulare strain II): 1 µg/mL (≈ 2.77 µM) | MIC ([6]; Mycobacterium intracellulare strain III): 1 µg/mL (≈ 2.77 µM) | MIC ([6]; Mycobacterium intracellulare strain IV): 10 µg/mL (≈ 27.7 µM) | MIC ([6]; Mycobacterium intracellulare strain V): 10 µg/mL (≈ 27.7 µM) | MIC ([6]; Mycobacterium intracellulare strain VI): 10 µg/mL (≈ 27.7 µM)
